According to patent US20090088482A1, “Compositions and Methods For Treating Heart Failure” (The Trustees Of Columbia University In The City New York, priority 2003, published 2009):

Tested on: rats with chronic heart failure induced by coronary artery ligation
Assay: Ex vivo left ventricular pressure-volume relationship (LVPVR) tracings (Example 2)
Assay type: in vivo
Details: 2 mg/kg/day oral, 8 weeks, untreated CHF 1.11
Experimental: Chronic heart failure was induced by coronary artery ligation in rats, and was confirmed by echocardiography, three weeks post-surgery. Three groups of rats were studied: (1) Chronic heart failure without clenbuterol (n=7); (2) chronic heart failure+clenbuterol (2 mg/kg/day; n=5); and (3) rats after sham operation (n=11). After 8 weeks of oral clenbuterol therapy, echocardiography and direct hemodynamic monitoring were performed. Rat hearts were then harvested for ex vivo left ventricular pressure-volume relationship (LVPVR) tracings, histologic (trichrome) sections, and molecular assays. Western analysis for myocardial calcium-handling proteins (ryanodine receptors (RyR), SERCA2a, phospholamban, and calcium-sodium exchanger) was assessed by densitometry.

SMILES: CC(C)(C)NCC(O)c1cc(Cl)c(N)c(Cl)c1 (stereo not shown) [Clen, clenbuterol]
- LVPVR volume for a given LV pressure=15 mmHg: 1.02 mL
